Starred links: 1 amine or outer side, 2 acyl side, 3 side chain; linkers in the order of their positions; H or OH if unused. Positions of bridges follow the written chain, without caps; N, C: chain ends. Non-standard residues stand in square brackets, D forms with d. Residues, ends and D or L forms follow the SMILES beside them. Chains are numbered I, II in the order given. Actinocin(9to1) = Cc1c2oc3c(C)ccc(C(=O)[*:1])c3nc-2c(C(=O)[*:2])c(N)c1=O; NMeV = CN[C@H](C(=O)O)C(C)C; Sar = CNCC(=O)O
What was measured:
[1] = tested on: A549 lung carcinoma cells; assay: Annexin/PI apoptosis by flow cytometry, A549 cells; type: cell-based; conditions: A549 infected with Ad-eIF5A1; JNK inhibitor II 10 μM, U1026 10 μM, Pifithrin-a 30 μM
Description: A549 lung carcinoma cells were infected with either an adenovirus expressing LacZ (Lac) or eIF5A1 (5A). Four hours after infection, the media was replaced with media containing either DMSO, 10 μM of the p38 inhibitor SB203580 (Calbiochem), 10 μM of the JNK inhibitor II (Calbiochem), 10 μM of the MEK inhibitor U1026 (Calbiochem), or 30 μM of the p53 inhibitor Pifithrin-a (Calbiochem). Forty-eight hours later, the cells were harvested and the percentage of cells undergoing apoptosis was determined by Annexin/PI staining (BD Bioscience) followed by analysis by flow cytometry.

[2] = tested on: MAPK/SAPK signaling pathways; assay: Western blot of MAPK/SAPK pathway activation in A549 cells; type: cell-based; conditions: A549 infected with Ad-eIF5A1 or Ad-eIF5A1(K50A), with MEK1 inhibitor
Description: (§1) Western blotting of lysate from A549 cells used for MAPK/SAPK pathway analysis was performed using lysate collected in MAPK lysis buffer (10 mM Tris-pH 7.4, 2% SDS, 10% glycerol). Ten micrograms of lysate was separated on 10% SDS-PAGE gels and transferred to a PVDF membrane. The membrane was blocked for one hour in 5% non-fat skim milk in PBS, washed with PBS and incubated with primary antibody at 1:1000 in 5% BSA/PBS-T overnight at 4° C. with shaking. The MAPK/SAPK antibodies (P-p38, p38, P-JNK, JNK, P-ERK, ERK, p90RSK) were purchased from Cell Signaling. The p53 antibodies used in the A549 study were also obtained from Cell Signaling and used in a similar fashion.
HT-29 cells were infected with 3000 infectious units per cell and experiments with A549 cells were performed using 1500 infectious units per cell.

p53 = assay: Western blot of p53 and phosphorylated p53 in A549 cells; type: cell-based; conditions: A549, inhibitor added 4 hours after infection (U1026 10 μM, Pifithrin-a 30 μM)
Description: as §1
A549 lung carcinoma cells were infected with either an adenovirus expressing LacZ (Lac) or eIF5A1 (5A). Four hours after infection, the media was replaced with media containing either DMSO, 10 μM of the p38 inhibitor SB203580 (Calbiochem), 10 μM of the JNK inhibitor II (Calbiochem), 10 μM of the MEK inhibitor U1026 (Calbiochem), or 30 μM of the p53 inhibitor Pifithrin-a (Calbiochem). Forty-eight hours later, the cells were treated with EGF for 30 minutes and the cell lysate was harvested. Western blots were performed on the lysate using antibodies directed against either total p53 (p53), or p53 phosphorylated on serine 15 [P-p53(ser15)], or p53 phosphorylated on 37 [P-p53(ser37)].

eIF5A1 [3] = assay: 2-D gel electrophoresis and Western blot of eIF5A1 forms in HT-29 cells; type: cell-based, human; conditions: HT-29, beginning 1 hour after treatment, disappearing 24 hours after treatment
Description: For 2-D gel electrophoresis, HT-29 cell lysate was harvested in cold lysis buffer (7M Urea, 2M Thiourea, 30 mM Tris, 4% CHAPS, protease inhibitor cocktail), sonicated and cleared of debris by centrifugation. Protein concentration was determined using the Bradford method. The first dimensional isolelectric focusing was performed with the Ettan IPGphor Isoelectric Focusing System (Amersham Biosciences) according to the manufacture's instruction. Immobiline DryStrips (7 cm pH 4-7; Amersham Biosciences) were rehydrated in rehydration buffer (8M Urea, 2% CHAPS, 0.2% DTT, 0.5% pH 4-7 IPG buffer, 0.002% Bromophenol blue) along with cell lysate at room temperature for 12 hours. The isoelectric focusing was performed at 500 V for 30 min, 1000 V for 30 min, and 5000 V for 1 hour and 40 min. The protein on the IPG strip gel was then separated by SDS-PAGE and transferred to a PVDF membrane (Amersham Biosciences). Western blotting was performed using eIF5A antibody (BD Biosciences).

eIF5A1 [4] = assay: Indirect immunofluorescence localization of eIF5A1 in HT-29 cells; type: cell-based, human
Description: HT-29 cells were cultured on poly-L-lysine-coated glass coverslips. Subconfluent cells were incubated for 16 hours with 200 Units of interferon gamma (IFN-γ; Roche Applied Science) followed by TNF-α (100 ng/ml; Leinco Technologies) for times varying from 10 minutes to 8 hours. Alternatively, cells were treated with 1.0 μg/ml Actinomycin D for increasing lengths of time from 30 minutes to 16 hours. The treated cells were fixed with 3% formaldehyde (methanol-free; Polysciences Inc.) for 20 minutes, washed twice for 5 minutes with PBS and once for 5 minutes with PBS containing 100 mM glycine, and permeabilized with 0.2% Triton X-100 in PBS for 4 minutes. Cells were then labeled for immunofluorescence using a standard protocol. The primary antibody was anti-eIF5A (BD Transduction Laboratories; mouse IgG) incubated at a dilution of 1:250 for 1 hour. The secondary antibody was anti-mouse IgG-AlexaFluor 488 (Molecular Probes) used at a dilution of 1:200 for 1 hour. Following antibody labeling, the nuclei were stained with Hoescht 33258, and the labeled cells were observed by fluorescent microscopy.

eIF5A1 [5] = assay: Western blot of eIF5A1 expression in normal colon fibroblasts; type: cell-based; conditions: 0.5 μg/ml, 24 hours
Description: Protein for Western blotting was isolated using boiling lysis buffer [2% SDS, 50 mM Tris-HCl (pH 7.4)]. Protein concentrations were determined using the Bicinchoninic Acid Kit (Sigma). For Western blotting, 5 μg of total protein was fractionated on a 12% SDS-polyacrylamide gel and transferred to a polyvinylidene difluoride membrane. The primary antibodies used were anti-eIF5A (BD Transduction Laboratories; mouse IgG) and anti-β-actin (Oncogene; mouse IgM), both at a dilution of 1:20,000 in 5% milk. The secondary antibodies were anti-mouse IgG conjugated to horseradish peroxidase (HRP; Sigma) and anti-mouse IgM-HRP (Oncogene). Antibody-protein complexes were visualized using the enhanced chemiluminescence method (ECL, Amersham Biosciences). Following detection of eIF5A, the blots were stripped according to the protocol provided by the ECL Plus Western blotting detection system and reprobed with anti-β-actin antibody to confirm equal loading.

HT-29 cells = assay: XTT and BrdU cell proliferation assays of HT-29 cells (siRNA, GC7); type: cell-based, human; conditions: 50 μM for 72 hours, BrdU incorporation
Description: HT-29 cells were transfected with siRNA on 96-well plates using Lipofectamine 2000 (Invitrogen). Metabolic activity of proliferating cells was measured with the XTT Cell Proliferation Kit (Roche Applied Science). The BrdU Cell Proliferation Kit (Roche Applied Science) was used to measure DNA synthesis following the manufacturer's protocol. For XTT assays performed following adenovirus infection, 5000 cells were plated per well in a 96-well plate. The next day cells were infected with Ad-lacZ, Ad-eIF5A1 and Ad-eIF5A1(K50A) (Ad-eIF5A1M) respectively with untreated cells as negative control and Actinomycin D treated cell as positive control. XTT substrate was added and A475 nm was measured with A690 nm as the reference.

Molecule: O=C1c2ccccc2-c2n[nH]c3cccc1c23 [JNK inhibitor II]
- effect of inhibitor on apoptosis induced by eIF5A1 [1]: increases apoptosis

Molecule: N#CC(=C(/N)Sc1ccccc1N)/C(C#N)=C(/N)Sc1ccccc1N [U1026]
- activation of JNK [2]: inhibited the activation of JNK
- p38 activation [2]: increased p38 activation
- effect of inhibitor on apoptosis induced by eIF5A1 [1]: increases apoptosis
- effect of inhibitor on Ad-eIF5A1-induced accumulation and phosphorylation of p53 (p53): inhibited

Molecule: Cc1c2oc3c(C)ccc(C(=O)N[C@@H]4C(=O)N[C@H](C(C)C)C(=O)N5CCC[C@H]5C(=O)N(C)CC(=O)N(C)[C@@H](C(C)C)C(=O)O[C@@H]4C)c3nc-2c(C(=O)N[C@@H]2C(=O)N[C@H](C(C)C)C(=O)N3CCC[C@H]3C(=O)N(C)CC(=O)N(C)[C@@H](C(C)C)C(=O)O[C@@H]2C)c(N)c1=O [Actinomycin D] (I: T[dV]P[Sar][NMeV] / II: T[dV]P[Sar][NMeV]; ester I:1-I:C, II:1-II:C; linker I:N-II:N via Actinocin(9to1))
- deoxyhypusinated form of eIF5A1 (eIF5A1 [3]): increase in the presence of the deoxyhypusinated form of eIF5A1
- time to shift of eIF5A1 from cytoplasmic to nuclear localization (eIF5A1 [4]): ≤ 90 min
- eIF5A1 protein expression (eIF5A1 [5]): up-regulated

Molecule: Pifithrin-a
- effect of inhibitor on apoptosis induced by eIF5A1 [1]: decreases apoptosis
- effect of inhibitor on Ad-eIF5A1-induced accumulation and phosphorylation of p53 (p53): inhibited

Molecule: N=C(N)NCCCCCCCN [GC7, N1-guanyl-1,7-diaminoheptane]
- effect on the growth of the cells (HT-29 cells): profound effect on the growth

— US20070154457A1, “Use of eIF-5A to kill multiple myeloma cells” (Senesco Technologies, Inc., priority 2005, published 2007)
